Data as given in US5821046A, “RNA oligonucleotides that bind HIV tat protein” (RiboTargets Holdings PLC, priority 1990, dated 1998).

Assays:
HIV-1 tat protein [1] = assay: direct filter binding assay of tat to TAR RNA (saturation binding, Scatchard analysis); conditions: direct filter binding; HIV-1 TAR from saturation binding/Scatchard plot, mutants estimated from half-maximal binding; read-out: Kd (dissociation constant of tat binding)
Experimental: The results shown graphically in FIG. 4 are from experiments in which binding reactions (500 ul) contained 40 nMolar^32 P uniformly radiolabelled TAR RNA at a specific activity of 100,000 Ci/mole; 0.5 ug calf thymus DNA; 0.2 ug yeast TRNA; 40 units RNAsin (Promega); 50mm Tris-HCl pH 7.9 and 20 mM KCl. Reaction mixtures were set up on ice and increasing amounts of HIV-1 tat protein were added and the reaction mixtures were filtered through prewashed nitrocellulose filters (Millipore 0.45 uM pore size). The filters were dried and counted by liquid scintillation counting. The fraction of radiolabeled RNA bound was plotted against HIV-1 tat concentration.
Binding was measured by a filter-binding assay as described below under "Method", using monomeric tat protein prepared by CNBr cleavage of a human growth hormone-tat fusion protein expressed in E. coli. Reactions for saturation binding contained labeled TAR RNA [SEQ ID NO: 1] or antisense TAR RNA [SEQ ID NO: 6] at 10 nm and between 0 to 300 nM purified tat protein. Antisense TAR RNA was used as a control, since antisense TAR is unable to form stable complexes with tat in gel-retardation assays (Dingwall et al., 1989).
The stoichiometry of the tat/TAR interaction was determined by varying the TAR RNA concentrations over a wide range, while keeping the tat protein concentration constant near the Kd. For this Scatchard analysis, the tat protein concentration was held constant at 40 nM and the RNA concentration was varied between 7nM and 320 nM. The total amount of labeled RNA was kept constant in the binding reactions, but the specific activity of the RNA was varied. […]
Tat protein was prepared either from beta-galactosidase-tat fusion proteins (6) or from human growth-hormone-tat fusion proteins (85) using an improved method. In brief, inclusion body pellets containing the fusion protein were solubilized in 7M GdHCl, 50 mM Tris-HCl pH8.0, 2 mM EDTA, 2mM DTT and the fusion protein was purified to near homogeneity by ion-exchange chromatography on Q-Sepharose and S-Sepharose (Pharmacia) in buffers containing […], 50 mM Tris-HCl pH8.0, 2mM EDTA, 2mM DTT. The cysteine residues were protected by disulphide-exchange with 20 mM 2-hydroxyethyldisulphide (86), and the protein was cleaved by cyanogen bromide (6). The basic tat protein was then separated from the acidic human growth hormone peptides by ion-exchange chromatography on Q-Sepharose and S-Sepharose in 6M Urea. The protecting groups were then removed from the protein by addition of 10 mM DTT and the protein refolded by stepwise dialysis against 6 m Urea, 5M Urea,3M Urea, 1M Urea and 0M Urea in a buffer containing 50 mM Tris-HCl pH8.0, 100 uM DTT, 10 uM ZnCl2 Tat protein refolded in this manner elutes as a monomer from Superose 12 columns (Pharmacia) and migrates as a single band on polyacrylamide gels. Protein prepared by both methods behaved comparably in binding assays.
A wide variety of parameters affecting the binding of tat protein to TAR RNA were studied and binding conditions were optimized. Binding of tat to TAR has a distinct pH optimum at pH 8.0, but good binding is observed between pH 7.5 and pH 8.5. Tat/TAR complexes are very sensitive to ionic strength. […] Addition of Zn^+2, Cd^+2, Ca^+2, Mg,^+2, Fe^+2 or Fe^+3 ions to the reaction mixtures […]. However, the binding reaction is sensitive to EDTA at greater than 0.1 mM EDTA. Complex formation is also somewhat temperature sensitive. Optimal binding is observed at 0°C. Between 15° C. and 30° C. there is a 30% reduction in complex formation. […]

HIV-1 tat protein [2] = assay type: binding; conditions: 32P-labeled RNA transcript, 0 to 600 ng tat
Experimental: i) Gel retardation assays (FIG. 6) Method RNA transcripts were prepared by transcription with either T3 or T7 RNA polymerases of TAR regions residues +1 to +57, cloned between the HindIII and EcoRI sites of the Bluescribe M13+expression vector (Stratagene). RNA transcripts corresponding to HIV-1 TAR [SEQ ID NO: 1], SSA [SEQ ID NO: 3], SAA and SAS [SEQ ID NO: 5] were synthesized from clones linearized with EcoRI and transcribed with T3 RNA polymerase. RNA transcripts corresponding to the antisense HIV-1 TAR […], AAS , ASS [SEQ ID NO: 4], and ASA (not shown) sequences were prepared from the same plasmids linearized with HindIII and transcribed using T7 RNA polymerase. All other RNA molecules were synthesized using T3 RNA polymerase following EcoRI cleavage of the plasmid vector. The RNA products each carry 13 nucleotides of vector sequence at their 5' end and four nucleotides at their 3' ends. […] Transcription mixtures contained 1 ug linearized plasmid, 40 mM Tris-HCl pH 8.0, 10 mM MgCl 2, 2 mM Spermidine-HCl, 50 mM NaCl, 100 uM each ribonucleotide triphosphate, 40 uCi (alpha-^32 P) UTP (410 Ci/m mol) and 10 units of RNA polymerase in a final volume of 30 ul and were incubated at 37° C. for 30 minutes. After phenol extraction and precipitation from ethanol the RNA was purified from a 9% polyacrylamide denaturing gel. The specific activity of the RNA product was determined and appropriate amounts were used in binding assays. Binding reaction mixtures (1 5ul) contained 1 ng of uniformly labeled RNA probe, 0.5 ug calf thymus DNA, 0.2 ug yeast TRNA, 40 units RNAsin (Promega), 50 mM Tris-HCl and 20 mM KCl and 0 to 600 ng tat protein, prepared from E. coli beta-galactosidase-tat fusion proteins, as described previously (6). After incubation at either 30° C. or 4° C. for 10-20 minutes, the reaction mixtures were applied to a 6% non-denaturing polyacrylamide gel (Acrylamide: Bis, 40:0.5) in 3.3 mM sodium acetate, 6.7 mM Tris (adjusted to pH 7.9 with HCl). The gel buffer was recirculated during electrophoresis at 35 mA for approximately 2 hours at room temperature. Gels were dried and exposed to X-ray film at -80° C. using intensifying screens.

HIV-1 tat protein [3] = assay: competition filter binding assay, mutant TAR transcripts against labelled HIV-1 TAR RNA (FIG. 7, Table 1); conditions: 20 nM TAR RNA, 40 nM tat protein; for IC50: read-out: D1/2 (concentration of competitor RNA that reduces binding of HIV-1 tat to HIV-1 TAR RNA to 50%)
Experimental: Binding reactions (500 ul) were set up on ice and contained 80 pM ^32 P-labeled TAR RNA (17,600 dpm, 200 uCi/n mol) and unlabeled TAR RNA to give a final concentration of 20 nM, 0.5 ug calf thymus DNA, 0.2 ug yeast tRNA, 40 units RNAsin (Promega), 50 mM Tris HCl and 20 mM KCl. After addition of competitor RNA, binding was initiated by addition of HIV-1 tat protein to a final concentration of 400 ng/ml (40 nM). The binding reaction mixtures were then filtered under reduced pressure through pre-washed nitrocellulose filters (Millipore 0.45 uM pore size) and filters were dried and counted by liquid scintillation counting.
The fraction of^32 P-labeled TAR RNA bound was plotted against the final concentration of competitor RNA. In these experiments reactions included 20 nM TAR and 40 nM tat protein and increasing amounts of unlabeled competitor RNA from 40 nm to 6 uM. […] In theory, 40 nM tat will bind 50% of the input TAR RNA (D1/2) when the total TAR RNA concentration is 56 nM.
For competition experiments, binding reactions (500 ul) were set up on ice and contained 80 pM ^32 P-labeled TAR RNA (17,600 dpm, 200 uCi/n mol) and unlabeled TAR RNA to give a final concentration of 20 nM, 0.5 ug calf thymus DNA, 0.2 ug yeast TRNA, 40 units RNAsin (Promega), 50 mM Tris-HCl pH 7.9 and 20 mM KCl. After addition of 0 to 6 uM competitor RNA, binding was initiated by addition of HIV- 1 tat protein to a final concentration of 400 ng/mi (40 nM). The binding reaction mixtures were then filtered under reduced pressure through pre-washed nitrocellulose filters (Millipore 0.45 u pore size) and filters were dried and counted by liquid scintillation counting.
KRel is the ratio of the D1/2 values for HIV-1 TAR and competitor RNA.

[4] = system: tat-dependent promoter activity of viral LTR carrying the TAR sequence; assay: trans-activation CAT assay, HeLa cells cotransfected with LTR-CAT test plasmid and tat expression plasmid; assay type: cell-based; conditions: HeLa cells cotransfected with tat plasmid
Excerpt: If tat binding to TAR is necessary for trans-activation, then viral LTRs carrying TAR sequences with low affinities for tat should always have reduced tat-dependent promoter activity in vivo. Site-directed mutagenesis experiments on TAR have shown that trans-activation requires sequences in both the U-rich bulge (10, 11) and the loop sequence (12, 27, 28). These observations have now been extended, using TAR mutations with known affinities for tat in transfection experiments, the results of which are shown in FIG. 8. The experiments used either HeLa cells (FIG. 8a-d) or a constitutive producer of tat, HeLa/C63/tat cells (FIG. 8e-f).
The TAR sequences depicted in FIG. 3 [SEQ ID NO: 1-11] were introduced into a test plasmid, pD5-3-3, which carries a LTR and approximately 300 bases of 5' flanking sequences derived from the infectious proviral clone NL4 (29). The bacterial chloramphenicol acetyltransferase (CAT) gene and SV40 intron and terminator sequence from pSV2-CAT (30) was inserted downstream of TAR by cloning into the HindIII site at +77. Trans-activation was measured either by cotransfection of HeLa cells with the test plasmids and the tat expression plasmid pC63-4-1 (6) (panels a-d in […]), or by transfection of the test plasmids alone into HeLa/C63/tat (clone 9) cells (panels e-h). […]

HIV-1 Tat [5] = target: T1, HIV-1 Tat (Human immunodeficiency virus 1, UniProt P04608 P04608:1-86); assay: competition; D1/2; unmodified 18+15 duplex 65 nM; conditions: duplex with bulge
HIV-1 Tat [6] = target: T1, HIV-1 Tat; assay: competition; D1/2; unmodified 29-mer 60 nM; 29-mer probe; conditions: hairpin with U-rich bulge
HIV-1 Tat [7] = target: T1, HIV-1 Tat; assay: filter; Scatchard 11.8 nM; 50 mM Tris-HCl, 20 mM KCl, on ice, calf thymus DNA and yeast tRNA present; conditions: label: 32P; stem-loop with 3-nt U-rich bulge
HIV-1 Tat [8] = target: T1, HIV-1 Tat; assay: competition; D1/2; wild type 90 nM

For “Antisense: anti-sense sequence to HIV-1 BRU TAR (antisense GGGUUCCCUAGUUAGCCAGAGAGCUCCCAGGCUCAAAUCUGGUCUAACCAGAGAGACCC; chemistry not given here) [reference compound]”, the Kd (HIV-1 tat protein [1]) was > 140 nM and the “complex formation with tat in gel retardation assay” value (HIV-1 tat protein [2]) was “No complexes were formed”.

For “HIV-2 TAR: first stem-loop structure of HIV-2 ROD TAR RNA, bulge of two uridine residues (CUGCGGAGAGGCUGGCAGAUUGAGCCCUGGGAGGUUCUCUCCAGCACUAGCAG; RNA, backbone not given here) [reference compound]”, the Kd (HIV-1 tat protein [1]) was 30 nM, the “KRel (ratio of D1/2 values for HIV-1 TAR and competitor RNA)” value (HIV-1 tat protein [3]) was 0.40 and the IC50 (HIV-1 tat protein [3]) was 160 nM. The “complex formation with tat in gel retardation assay” value (HIV-1 tat protein [2]) was “discrete complex formation”.

With “G28 to C28 ; C37 to G37: pair of TAR point mutations expected to have a normal TAR stem/loop structure (GGGUCUCUCUGGUUAGACCAGAUUUGACCCUGGGAGGUCUCUGGCUAACUAGGGAACCC; chemistry not given here)” the Kd (HIV-1 tat protein [1]) was 24 nM, the “KRel (ratio of D1/2 values for HIV-1 TAR and competitor RNA)” value (HIV-1 tat protein [3]) was 0.84 and the IC50 (HIV-1 tat protein [3]) was 76 nM. The “trans-activation phenotype” value [4] was “restored to wild-type levels”.

B1: 18+15 duplex 4-thioT-24 (dsRNA)
RNA 1: AGCCAGAUTUGAGCAGCU
RNA 2: AGCUGCUCUCUGGCU
modifications: 4-thio-2'-deoxythymidine at U24 (nt 9) [9 (strand 1, 4-thio-2'-deoxythymidine)]
Work on B1 yielded an IC50 (HIV-1 Tat [5]) of 25 nM.

B2: 18+15 duplex 4-thioT-23 (dsRNA)
RNA 1: AGCCAGATUUGAGCAGCU
RNA 2: AGCUGCUCUCUGGCU
modifications: 4-thio-2'-deoxythymidine at U23 (nt 8) [8 (strand 1, 4-thio-2'-deoxythymidine)]
B2 gave an IC50 (HIV-1 Tat [5]) of 32 nM.

With GCCAGAUUUGAGCCUGGGAGCUCUCUGGC (ssRNA, 2'-OMe uridine at U23 (nt 7) [7 (2'-OMe uridine, U23)]) [29-mer 2'-OMeU-23] the IC50 (HIV-1 Tat [6]) was 50 nM.

With GCCAGAUUUGAGCCUGGGAGCUCUCUGGC (ssRNA, 2'-deoxyuridine at U23 (nt 7) [7 (2'-deoxyuridine, U23)]) [29-mer dU-23] the IC50 (HIV-1 Tat [6]) was 55 nM.

B3: HIV-1 TAR RNA 59-mer (UUU bulge) (ssRNA)
RNA: GGGUCUCUCUGGUUAGACCAGAUUUGAGCCUGGGAGCUCUCUGGCUAACUAGGGAACCC
With B3 the Kd (HIV-1 Tat [7]) was 12 nM.

B4: TAR C39 to G39 (ssRNA)
RNA: GGGUCUCUCUGGUUAGACCAGAUUUGAGCCUGGGAGCUGUCUGGCUAACUAGGGAACCC
For B4, the IC50 (HIV-1 Tat [8]) was 1500 nM.

B5: TAR G26 to A26; C39 to U39 (ssRNA)
RNA: GGGUCUCUCUGGUUAGACCAGAUUUAAGCCUGGGAGCUUUCUGGCUAACUAGGGAACCC
B5 was tested, and the IC50 (HIV-1 Tat [8]) was 631 nM.

B6: TAR G26 to C26; C39 to G39 (ssRNA)
RNA: GGGUCUCUCUGGUUAGACCAGAUUUCAGCCUGGGAGCUGUCUGGCUAACUAGGGAACCC
For B6, the IC50 (HIV-1 Tat [8]) was 2370 nM.

B7: TAR A22 to U22; U40 to A40 (ssRNA)
RNA: GGGUCUCUCUGGUUAGACCAGUUUUGAGCCUGGGAGCUCACUGGCUAACUAGGGAACCC
B7 showed an IC50 (HIV-1 Tat [8]) of 220 nM.
